In patent EP0623339B1, “Use of 4-,4- and 5-, or 4- and 6-substituted derivatives of resorcin in cosmetic or dermopharmaceutical compositions for depigmentation” (L'OREAL, priority 1993, dated 1994):

Test system: tyrosinase de champignons
Test: in vitro inhibition test of tyrosinase activity (dopachrome formation followed at 475 nm)
Format: biochemical
Conditions: lowering of maximal dopachrome formed (OD 475 nm at plateau) vs. no inhibitor; inhibitor at 50 % molaire relative to tyrosine; pH = 6,5; 25°C
Source text: Certains des composés de formule générale (I) ont été étudiés comparativement à l'hydroquinone à quantité molaire équivalente dans le test d'inhibition in vitro de l'activité de la tyrosinase.
Selon ce test on suit par spectrométrie visible à 475 nm la quantité de dopachrome formée au cours de la chaîne de réactions de transformation de la tyrosine en mélanines. Ces réactions sont catalysées in vitro par la tyrosinase de champignons, en présence d'un co-substrat réducteur (par exemple la L-dopa en petite quantité) pour initier la réaction d'hydroxylation de la L-tyrosine en L-dopa, laquelle est ensuite oxydée catalytiquement en dopaquinone puis en dopachrome, produit intermédiaire avant les réactions d'oxydation non enzymatiques aboutissant à la formation des mélanines.
On mesure donc la concentration en dopachrome formé au cours du temps en présence et en absence de l'inhibiteur. […]
On exprime l'effet d'inhibition par l'abaissement de la quantité maximale de dopachrome formée (valeur de densité optique à 475 nm lue au plateau de la courbe) par rapport à la quantité obtenue en l'absence d'inhibiteur. […]
• cuve de référence : 3 ml de A • cuve d'essai : 1 ml de B 0,1 ml de C 1,85ml de A + E • homogénéiser et équilibrer à 25°C • ajouter 0,05 ml de D • mélanger rapidement et observer la cinétique par la mesure de l'absorbance à 475 nm en fonction du temps.

Structure (SMILES): Oc1ccc(O)cc1 [hydroquinone]
- % d'inhibition: -33%
